The test system of this experiment is wild-type ZIKV (Ugandan MR766 strain) in Vero cells. In words: ZIKV cytopathic effect (CPE) inhibition qHTS assay, CellTiter-Glo readout. It counts as cell-based, Zika virus. On the technique in general: Protection from cytopathic effect is a common read-out in antiviral testing.
[1] abbreviates: Zika virus, Vero, read-out: Log AC50 (M) (converted).

Where two headings read alike, the source gives them in different places.

The AC50 is the concentration at which the activity in the assay is half-maximal.

For `C[C@@H]1C[C@@H]([C@@H](O)C(C)(C)O)O[C@H]2C[C@@]3(C)C(=C12)C[C@H](O)[C@H]1[C@@]2(C)CCC(=O)C(C)(C)C2CC[C@@]13C` (stereo partly shown) [NCGC00384870-01], the “CC-v2 (curve class classification of the dose response curve)” value (from here on “CC-v2”) is given as -3 and the Efficacy was -67.591. In addition, half-maximal activity (Zika virus, Vero) (AC50) was put at 1.59e-05 M. Further, under setting [1], the AC50 was 1.59e-05 M.
Turning to `CC[C@H](CC#N)OC(=O)N[C@@H](C)c1cccc(NC(=O)Nc2ccc(-c3cnco3)c(OC)c2)c1` [NCGC00345803-05], the Efficacy is listed as -31.6. The compound also had an AC50 (Zika virus, Vero) of 7.31e-05 M. Moreover, the AC50 under setting [1] is 7.31e-05 M.
Take `C/C=C(\C)C(=O)OC1CC2C(CC=C3CC(OC4CC(OC)C(OC5CC(OC)C(OC6CC(OC)C(OC7CC(OC)C(OC8CC(OC)C(OC9OC(CO)C(O)C(O)C9O)C(C)O8)C(C)O7)C(C)O6)C(C)O5)C(C)O4)CCC32C)C2(O)CCC(C(C)=O)C12C` (stereo not shown) [NCGC00381127-01]: the AC50 was 4.36e-06 M (Zika virus, Vero, primary qHTS curve fit, 194 cherry-picked compounds, log10 of molar AC50, read-out: Log AC50 (converted)) and 4.36e-06 M (Zika virus, Vero, primary qHTS curve fit, values match uM against the Log AC50 column, read-out: AC50). Further, the Emax (Zika virus, Vero, response at highest concentration, read-out: Max response) was 4.53%. For the same compound, the Curve class (qHTS curve class, negative sign = inhibitory curve) is listed as -3.
For `CC1(C)C=CN2C(=O)C3=CCCN3C(=O)[C@@H]2C[C@@]12Nc1ccccc1C2=O` [NCGC00380729-01], the Efficacy is given as -25.178. For the setting “Zika virus, Vero”, half-maximal activity (AC50) was put at 4.53e-05 M. Moreover, the AC50 under setting [1] was 4.53e-05 M.
For `C=C(C)C(=O)O[C@H]1[C@H]2C(=C)C(=O)O[C@@H]2C[C@@H](C)[C@@H]2O[C@@H]2C(=O)[C@](C)(O)[C@@H]1OC(=O)C(=C)C` [NCGC00169479-03], the “CC-v2” value is listed as -3 and the Efficacy was -35.91. Half-maximal activity (Zika virus, Vero) (AC50) was put at 3.55e-05 M. Further, under setting [1], the AC50 is 3.55e-05 M.
Take `C/C=C/c1ccc2oc(-c3ccc(O)c(OC)c3)c(C)c2c1` [NCGC00385078-01]: the “CC-v2” value is recorded as -3 and the Efficacy is -53.705. Also, the AC50 (Zika virus, Vero) came to 2.31e-05 M. Also, the AC50 under setting [1] was 2.31e-05 M.
Take `CN1CC2CN(c3ccc4oc5ccccc5c(=O)c4c3)CC2C1` (stereo not shown) [NCGC00371020-01]: the Efficacy is listed as -29.929. This compound displayed an AC50 (Zika virus, Vero) of 3.17e-05 M. The AC50 under setting [1] is 3.17e-05 M.
With `CCOC(=O)C1=C(N)Oc2ccc(Cl)cc2C1C(C#N)C(=O)OCC` (stereo not shown) [NCGC00387181-02], the “CC-v2” value is reported as -2.2 and the Efficacy is recorded as -45.481. Under “Zika virus, Vero”, the AC50 amounted to 3.66e-05 M. Besides, under setting [1], the AC50 is 3.66e-05 M.
In the case of `C[S+]([O-])c1ccc(-c2nc(-c3ccncc3)c(-c3ccc(F)cc3)[nH]2)cc1` (stereo not shown) [NCGC00025035, SB-203580, reference compound], the “Identified as active in CPE assay validation set” value was “identified”.
In the case of `CC1CCC2C(=CCC(O)C2(C)C)C1(C)Cc1c(O)cc(CO)c(C=O)c1O` (stereo not shown) [NCGC00380764-01], the “CC-v2” value was -2.2 and the Efficacy is -71.029. For the setting “Zika virus, Vero”, this compound gave an AC50 of 4.04e-05 M. Further, under setting [1], the AC50 was 4.04e-05 M.
`CC(=O)OC12C(O)C(C)C3(O)C4C=C(C)C(=O)C4CC(CO)=CC3C1C2(C)C` (stereo not shown) [NCGC00385123-01]: the “CC-v2” value is listed as -3 and the Efficacy is given as -66.621. Under “Zika virus, Vero”, this compound registered an AC50 of 1.12e-05 M. In addition, the AC50 under setting [1] was 1.12e-05 M.
With `C=C1/C(=C/C=C2\CCC[C@]3(C)[C@@H]([C@H](C)/C=C/[C@@H](C)C(C)C)CC[C@@H]23)C[C@@H](O)C[C@@H]1O` [NCGC00386145-01], the “CC-v2” value was -3 and the Efficacy is -42.433. For the same compound, the AC50 (Zika virus, Vero) is 6.51e-05 M. Further, the AC50 under setting [1] was 6.51e-05 M.
For the compound `C/C=C(\C)C(=O)O[C@H]1C=C(CO)C(=O)[C@H](OC(C)=O)[C@H]1C(C)C` [NCGC00180769-03], the “CC-v2” value is listed as -3 and the Efficacy was -32.712. This compound came in with an AC50 (Zika virus, Vero) of 4.53e-05 M. In addition, under setting [1], the AC50 is 4.53e-05 M.
With `O=C(CCN1CCN(C(=O)OCc2cc(Cl)cc(Cl)c2)CC1)c1ccc2[nH]c(=O)oc2c1` [NCGC00346939-05], the Efficacy is recorded as -25.5. Besides, the activity (Zika virus, Vero) was half-maximal at 7.31e-05 M (AC50). Moreover, the AC50 under setting [1] was 7.31e-05 M.
